Assay results as given in ChEMBL document CHEMBL3881525, “Analogs of dehydrophenylahistins and their therapeutic use” (2007).
Converted amounts (≈) assume the structure as drawn. The source made the active and inactive calls. No cut-off for these calls is given here.

Columns and labels:
[1] = Cytotoxicity against human HT-29 cells assessed as reduction in cell viability measured after 48 hrs by resazurin dye-based fluorometric analysis; format: functional; settings: Homo sapiens, HT-29, 48 h
HeLa = test: Effect on cell cycle progression in human HeLa cells assessed as increase in 4N cells at 100 nM; format: functional, cell-based
[2] = Drug metabolism assessed as human hepatic cytochrome P450-mediated hydroxylated metabolite P3 and P5 formation; format: ADME
[3] = Cytotoxicity against human OVCAR3 cells assessed as reduction in cell viability measured after 48 hrs by resazurin dye-based fluorometric analysis; format: functional; settings: OVCAR-3, 48 h
[4] = Cytotoxicity against mouse B16F10 cells assessed as reduction in cell viability measured after 48 hrs by resazurin dye-based fluorometric analysis; format: functional; settings: B16-F10, 48 h
[5] = Cytotoxicity against human CCD-27Sk cells assessed as reduction in cell viability measured after 48 hrs by resazurin dye-based fluorometric analysis
[6] = Antiproliferative activity against taxol-resistant human MES-SA/Dx5 cells expressing MDR1 mRNA and P-gp; format: functional, cell-based
[7] = Antiproliferative activity against human mitoxantrone-resistant HL60/MX2 cells; format: functional, cell-based; settings: HL-60
HUVEC [8] = test: Induction of apoptosis in HUVEC assessed as cell membrane blebbing; format: functional, cell-based; settings: Homo sapiens
HUVEC [9] = test: Induction of apoptosis in HUVEC assessed as cell shrinkage; format: functional, cell-based; settings: Homo sapiens
Jurkat [10] = test: Induction of apoptosis in human Jurkat cells assessed as caspase3 activation; format: functional, cell-based
Jurkat [11] = test: Induction of apoptosis in human Jurkat cells assessed as PARP cleavage at 100 nM measured after 10 hrs by Western blotting; format: functional, cell-based
[12] = Antitumor activity against human HT-29 cells xenografted in nude mouse assessed as tumor growth inhibition at 7.5 mg/kg, ip administered every third day for 5 days relative to control; format: functional; settings: HT-29, ip, 120 h, read-out: TGI
[13] = Antitumor activity against human HT-29 cells xenografted in nude mouse assessed as tumor growth inhibition at 10 mg/kg, ip administered every third day for 5 days in presence of CPT-11 relative to control; format: functional; settings: HT-29, ip, 120 h, read-out: TGI
[14] = Antitumor activity against human MCF7 cells xenografted in nude mouse assessed as tumor growth inhibition at 7.5 mg/kg, ip qd administered every third day for 5 days in presence of CPT-11 relative to control; format: functional; settings: 120 h, read-out: TGI
MCF7 [15] = test: Potentiation of taxotere-induced antitumor activity against human MCF7 cells xenografted in nude mouse assessed as tumor growth inhibition at 7.5 mg/kg, ip qd for 4 days measured on day 7; format: functional, organism-based
MDA-MB-231 = test: Antitumor activity against human MDA-MB-231 cells xenografted in nude mouse assessed as tumor growth inhibition at 7.5 mg/kg, ip administered thrice per day for 5 days in presence of paclitaxel relative to control; format: functional, organism-based
[16] = Antifungal activity against Trichophyton rubrum isolate 2 measured after 48 hrs by broth dilution method; format: functional
Trichophyton rubrum = test: Fungicidal activity against Trichophyton rubrum isolate 2 measured after 48 hrs by broth dilution method; format: functional; settings: isolate 2, 48 h
[17] = Antifungal activity against Epidermophyton floccosum isolate 1 measured after 48 hrs by broth dilution method; format: functional
[18] = Antifungal activity against Epidermophyton floccosum isolate 2 measured after 48 hrs by broth dilution method; format: functional
Mus musculus [19] = test: Antivascular activity against mouse N202 tumor spheroids expressing H2B-GFP allografted in mouse assessed as inhibition of tumor-induced central vasculature at 5 mg/kg, iv administered on day 12 as infusion for 2 mins measured on day 15 by fluorescence video microscopy; format: functional, organism-based
Mus musculus [20] = test: Antivascular activity against mouse N202 tumor spheroids expressing H2B-GFP allografted in mouse assessed as inhibition of tumor-induced central vasculature at 10 mg/kg, iv administered on day 13 as infusion for 5 mins measured on day 15 by fluorescence video microscopy; format: functional, organism-based
[21] = Toxicity in mouse allografted with mouse N202 tumor spheroids expressing H2B-GFP at 10 mg/kg, iv administered on day 12 as infusion for 5 mins; format: organism-based; settings: in vivo
[22] = Toxicity in mouse allografted with mouse N202 tumor spheroids expressing H2B-GFP at 5 mg/kg, iv administered on day 12 as infusion for 2 mins; format: organism-based; settings: in vivo
[23] = Toxicity in mouse allografted with mouse N202 tumor spheroids expressing H2B-GFP assessed as effect on tumor surrounding vasculature in the dorsal skin fold at 10 mg/kg, iv administered on day 12 as infusion for 5 mins measured on day 15; format: organism-based; settings: in vivo
Rattus norvegicus [24] = test: Effect on blood flow in rat spleen at 15 mg/kg, ip measured after 1 hr by [125I]iodoantipyrine based method relative to vehicle control; format: ADME, organism-based; settings: in vivo
Rattus norvegicus [25] = test: Reduction in blood flow in rat kidney at 15 mg/kg, ip measured after 24 hrs by [125I]iodoantipyrine based method relative to vehicle control; format: ADME, organism-based; settings: in vivo
Rattus norvegicus [26] = test: Reduction in blood flow in rat heart at 15 mg/kg, ip measured after 24 hrs by [125I]iodoantipyrine based method relative to vehicle control; format: ADME, organism-based; settings: in vivo
Tubulin (Homo sapiens) [27] = biological target: T1, Tubulin (Homo sapiens) (UniProt P68371+Q9H4B7+P0DPH7+P68366+Q13509+Q71U36+P04350+Q3ZCM7+P07437+P68363+Q9BQE3+Q6PEY2+Q13885+Q9BVA1+Q9BUF5); test: Induction of microtubule dynamic instability in human MCF7 cells assessed as effect on spindle morphology at mitotic block IC25 measured after 20 hrs by immunofluorescence analysis; format: cell-based
[28] = Antimitotic activity in human MCF7 cells assessed as tubulin foci formation at mitotic block IC50 measured after 20 hrs by immunofluorescence analysis relative to control; format: functional
MCF7 [29] = test: Antimitotic activity in human MCF7 cells assessed as bipolar cells with uncompressed chromosomes at mitotic block IC50 measured after 20 hrs by immunofluorescence analysis relative to control; format: functional
Tubulin (Homo sapiens) [30] = biological target: T1, Tubulin (Homo sapiens); test: Induction of microtubule instability in human MCF7 cells assessed as mean growth rate at IC25 for mitotic block measured after 20 hrs by immunofluorescence analysis; format: cell-based
Tubulin (Homo sapiens) [31] = biological target: T1, Tubulin (Homo sapiens); test: Induction of microtubule instability in human MCF7 cells assessed as time spent for shortening at IC25 for mitotic block measured after 20 hrs by immunofluorescence analysis; format: cell-based
Tubulin (Homo sapiens) [32] = biological target: T1, Tubulin (Homo sapiens); test: Induction of microtubule instability in human MCF7 cells assessed as rescue frequency at IC25 for mitotic block measured after 20 hrs by immunofluorescence analysis; format: cell-based
Tubulin (Homo sapiens) [33] = biological target: T1, Tubulin (Homo sapiens); test: Induction of microtubule instability in human MCF7 cells assessed as rescue frequency at IC50 for mitotic block measured after 20 hrs by immunofluorescence analysis; format: cell-based
Tubulin (Homo sapiens) [34] = biological target: T1, Tubulin (Homo sapiens); test: Induction of microtubule dynamic instability in human MCF7 cells at IC50 for mitotic block measured after 20 hrs by immunofluorescence analysis; format: cell-based
[35] = Antitumor activity against human A549 cells xenografted in nude mouse assessed as tumor growth inhibition at 7.5 mg/kg, ip qd administered every third day for 5 days in presence of CPT-11 relative to control; format: functional; settings: 120 h, read-out: TGI
[36] = biological target: Cyclin-dependent kinase 1/cyclin B1 (Homo sapiens) (UniProt P06493+P14635); settings: 10 uM
Cyclin-dependent kinase 1/cyclin B1 (Homo sapiens), sequence (P06493 whole entry, looked up): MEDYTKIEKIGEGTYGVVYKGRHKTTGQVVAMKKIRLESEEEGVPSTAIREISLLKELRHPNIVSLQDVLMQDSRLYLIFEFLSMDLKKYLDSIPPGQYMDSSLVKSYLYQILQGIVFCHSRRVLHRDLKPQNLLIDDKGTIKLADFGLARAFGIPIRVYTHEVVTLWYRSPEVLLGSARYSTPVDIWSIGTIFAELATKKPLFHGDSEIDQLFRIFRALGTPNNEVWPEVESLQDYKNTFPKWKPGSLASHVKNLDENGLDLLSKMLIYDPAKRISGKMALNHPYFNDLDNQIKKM
Cyclin-dependent kinase 1/cyclin B1 (Homo sapiens), sequence (P14635 whole entry, looked up): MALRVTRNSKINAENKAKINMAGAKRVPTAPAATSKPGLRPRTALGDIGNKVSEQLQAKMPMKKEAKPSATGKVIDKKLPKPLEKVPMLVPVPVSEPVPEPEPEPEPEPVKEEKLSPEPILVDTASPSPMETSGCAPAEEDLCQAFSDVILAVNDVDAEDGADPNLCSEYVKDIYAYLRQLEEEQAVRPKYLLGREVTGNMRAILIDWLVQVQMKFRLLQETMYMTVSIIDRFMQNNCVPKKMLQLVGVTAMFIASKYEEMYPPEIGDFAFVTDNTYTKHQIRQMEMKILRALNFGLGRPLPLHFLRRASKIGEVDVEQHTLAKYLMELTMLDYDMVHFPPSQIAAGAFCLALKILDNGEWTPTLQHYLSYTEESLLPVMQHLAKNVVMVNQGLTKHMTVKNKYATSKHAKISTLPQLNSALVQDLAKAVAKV
Description: Inhibition of human CDK1/human cyclinB at 10 uM in presence of ATP

[37] = biological target: Tyrosine-protein kinase Lyn (Mus musculus) (UniProt P25911); settings: 10 uM
Tyrosine-protein kinase Lyn (Mus musculus), sequence (P25911 whole entry): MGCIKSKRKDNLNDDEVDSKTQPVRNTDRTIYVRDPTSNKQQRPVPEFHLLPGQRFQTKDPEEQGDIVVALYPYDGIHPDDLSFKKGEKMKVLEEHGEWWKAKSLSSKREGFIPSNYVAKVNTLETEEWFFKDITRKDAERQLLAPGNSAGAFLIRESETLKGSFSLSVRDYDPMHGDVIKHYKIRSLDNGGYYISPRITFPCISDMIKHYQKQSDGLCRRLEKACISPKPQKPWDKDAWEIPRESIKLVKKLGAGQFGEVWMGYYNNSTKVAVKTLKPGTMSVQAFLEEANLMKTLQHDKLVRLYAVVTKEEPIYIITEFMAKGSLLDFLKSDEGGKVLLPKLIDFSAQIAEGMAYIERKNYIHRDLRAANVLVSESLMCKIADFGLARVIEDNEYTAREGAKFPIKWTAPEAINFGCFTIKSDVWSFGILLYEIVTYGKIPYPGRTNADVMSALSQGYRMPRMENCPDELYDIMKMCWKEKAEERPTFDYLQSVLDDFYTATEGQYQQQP
Description: Inhibition of mouse Lyn at 10 uM in presence of ATP

For CC(C)(C)c1[nH]cnc1/C=c1\[nH]c(=O)/c(=C/c2ccccc2)[nH]c1=O [PLINABULIN], the EC50 [1] was 9.8 to 48 nM, the Activity (HeLa) was “Active” and the Drug metabolism [2] was “Metabolite_Detected”. For the same compound, the EC50 [3] was > 20000 nM, the EC50 [4] was 37.1 nM and the EC50 [5] was 9.2 nM. For the same compound, the IC50 [6] was 10.5 to 23 nM, the EC50 [7] was 8.17 nM and the Activity (HUVEC [8]) was “Active”. The Activity (HUVEC [9]) was “Active”, the Activity (Jurkat [10]) was “Dose-dependent effect” and the Activity (Jurkat [11]) was “Active”. For the same compound, the inhibition in vivo at 7.5 mg/kg [12] was 9%, the inhibition in vivo at 10 mg/kg [13] was 65.8 to 83.3% and the inhibition in vivo at 7.5 mg/kg [14] was 26 to 81%. The TGI (MCF7 [15]) was “Active”, the TGI (MDA-MB-231) was “Active” and the MIC [16] was < 0.03 µg/mL. For the same compound, the MFC (Trichophyton rubrum) was 0.125 µg/mL (≈ 0.372 µM), the MIC [17] was > 16 µg/mL and the MIC [18] was > 16 µg/mL. For the same compound, the inhibition (Mus musculus [19]) was “Active”, the inhibition (Mus musculus [20]) was “Active” and the Activity [21] was “Non-Toxic”. For the same compound, the Activity [22] was “Non-Toxic”, the Activity [23] was “Non-Toxic” and the Activity (Rattus norvegicus [24]) was “Non-Toxic”. The Activity (Rattus norvegicus [25]) was “Toxic”, the Activity (Rattus norvegicus [26]) was “Toxic” and the Activity (Tubulin (Homo sapiens) [27]) was “Active”. The Activity [28] was 73%, the Activity (MCF7 [29]) was “Active” and the Activity (Tubulin (Homo sapiens) [30]) was 11.9 um/min. It also gave an Activity (Tubulin (Homo sapiens) [31]) of 20.5%, a TIME (Tubulin (Homo sapiens) [31]) of 0.00333 h and an Activity (Tubulin (Homo sapiens) [32]) of 2.79 min⁻¹. The Activity (Tubulin (Homo sapiens) [33]) was 2.6 min⁻¹, the Activity (Tubulin (Homo sapiens) [34]) was 10.6 um/min and the inhibition in vivo at 7.5 mg/kg [35] was 74%. The inhibition [36] was > 50% and the inhibition [37] was > 50%.
